Data as given in patent US5559232A, “Carboxamides” (Hoffmann-La Roche Inc., priority 1993, dated 1996).

Columns and labels:
human thrombin = human thrombin (Homo sapiens, UniProt P00734); assay: inhibition of the amidolytic activity of thrombin (chromogenic substrate S-2238); type: biochemical; conditions: for Ki: human thrombin 0.5 nM, substrate S-2238, pH 7.8, room temperature; for q (ratio of the inhibition of trypsin to the inhibition of thrombin): specificity: Ki trypsin / Ki thrombin
Procedure: A differential inhibition of thrombin and other serine proteases by the above compounds is desirable in order to obtain compounds having as high a specificity as possible and at the same time to avoid possible side-effects.
Specific chromogenic peptide substrates can be used to determine the inhibition of the catalytic activity of the above proteases. The inhibition of the amidolytic activity of thrombin and trypsin by the above guanidines was determined as described hereinafter.
The measurements were carried out on microtitre plates at room temperature. For this, in each well of the plate 150 μl of buffer (50 mM Tris, 100 mM NaCl, 0.1% polyethylene glycol; pH 7.8) were mixed with 50 μl of the inhibitor dissolved in DMSO and diluted in the buffer, and 25 μl of human thrombin (0.5 nM final conc.) were added. After incubation for 10 minutes the reaction was started by the addition of chromogenic substrate S-2238 (H-D-Phe-Pip-Arg-paranitroaniline from Kabivitrum; 10 or 50 μm final conc.) and the hydrolysis of the substrate was followed spectrophotometrically on a kinetic microtiter plate reader for 5 minutes. After graphical presentation of the inhibition curves the Ki values were determined according to the method described in Blochem. J. 55, 1955, 170-171.

trypsin = assay: inhibition of the amidolytic activity of trypsin (chromogenic substrate S-2251); type: biochemical; conditions: substrate S-2251, 200 and 750 μM, otherwise analogous to thrombin

Row | SMILES | Ki (human thrombin) [µM] | q (ratio of the inhibition of trypsin to the inhibition of thrombin) (human thrombin) | Ki (trypsin) [µM]
1 | CCOC(=O)CN(C(=O)[C@H](CC(=O)NCC1CN(C(=N)N)CCO1)NC(=O)OCc1ccccc1)C1CC1 (stereo partly drawn) [Example 5a, ethyl [[(S)-3-[4-(amino-imino-methyl)-morpholin-2-ylmethylcarbamoyl]-2-benzyloxycarbonylaminopropionyl]-cyclopropyl-amino]-acetate] | 8.9 | 26 | 231
2 | CCCCN(CCC(=O)O)C(=O)[C@H](CC(=O)NCC1CN(C(=N)N)CCO1)NC(=O)OCc1ccccc1 (stereo partly drawn) [Example 6d, 3-[[(S)-3-[4-(amino-imino-methyl)-morpholin-2-ylmethylcarbamoyl]-2-benzyloxycarbonylamino-propionyl]-butyl-amino]propionic acid] | 0.94 | 90 | 85
3 | N=C(N)N1CCOC(CNC(=O)C[C@H](NC(=O)OCc2ccccc2)C(=O)N(CC(=O)O)C2CC2)C1 (stereo partly drawn) [Example 6a] | 0.45 | 311 | 
4 | N=C(N)N1CCC[C@@H](CNC(=O)C[C@H](NC(=O)NCc2ccccc2)C(=O)N(CC(=O)O)C2CC2)C1 [Example 11, [[(S)-3-[(S)-1-(amino-imino-methyl)-piperidin-3-ylmethylcarbamoyl]2-(3-benzyl-ureido)-propionyl]-cyclopropyl-amino]-acetic acid] | 0.043 | 814 | 35
5 | CCCCC(=O)N[C@@H](CC(=O)NC[C@@H]1CCCN(C(=N)N)C1)C(=O)N(CC(=O)O)C1CC1 [Example 14a, [[(S)-3-[(S)-1-(Amino-imino-methyl)-piperidin-3-ylmethylcarbamoyl]-2-pentanoylamino-propionyl]-cyclopropyl-amino]acetic acid] | 0.019 | 3368 | 64

The next lines start with the values.

Row | Ki (human thrombin) [µM] | q (ratio of the inhibition of trypsin to the inhibition of thrombin) (human thrombin) | Ki (trypsin) [µM] | SMILES
6 | 0.0018 | 7222 | 13 | N=C(N)N1CCC[C@@H](CNC(=O)C[C@H]2C(=O)N(C3CC3)CC(=O)N2S(=O)(=O)c2ccc3ccccc3c2)C1 [Example 15, N-[(S)-1-(amino-imino-methyl)-piperidin-3-ylmethyl]-2-[(S)-4-cyclopropyl-1-naphthalen-2-ylsulphonyl-3,6-dioxo-piperazin-2-yl]-acetamide]
7 | 0.0023 | 3870 | 8.9 | N=C(N)N1CCC[C@@H](CNC(=O)C[C@H](NC(=O)CCc2c[nH]c3ccccc23)C(=O)N(CCNC(=O)c2cnccn2)C2CC2)C1 [Example 21a, (S)-N4-[(S)-1-(amino-imino-methyl)-piperidin-3-ylmethyl]-N1-cyclopropyl-2-(3-indol-3-yl-propionylamino)-N1-(2-pyrazin-2-ylcarbonylamino-ethyl)-succinamide]
8 | 0.081 | 852 | 69 | N=C(N)N1CCC[C@@H](CNC(=O)C[C@H](NC(=O)Cc2ccccc2)C(=O)N(CC(=O)O)C2CC2)C1 [Example 14e, [[(S)-3-[(S)-1-(amino-imino-methyl)-piperidin-3-ylmethylcarbamoyl]-2-benzylcarbonylamino-propionyl]-cyclopropyl-amino]acetic acid]
9 | 0.00086 | 5233 |  | N=C(N)N1CCC[C@@H](CNC(=O)C[C@H](NC(=O)CSc2ncccn2)C(=O)N(CCNC(=O)c2cnccn2)C2CC2)C1 [Example 20, (S)-N4-[(S)-1-(amino-imino-methyl)-piperidin-3-ylmethyl]-N1-cyclopropyl-N1-(2-pyrazin-2-ylcarbonylamino-ethyl)-2-pyrimidin-2-ylsulphanylacetylamino-succinamide]
10 | 0.0013 | 19231 |  | N=C(N)N1CCC[C@@H](CNC(=O)C[C@H](NC(=O)COc2ccccc2)C(=O)N(CCNC(=O)c2cnccn2)C2CC2)C1 [Example 21d, N4-[(S)-1-(amino-imino-methyl)-piperidin-3-ylmethyl]N1-cyclopropyl-2-phenoxyacetylamino-N1-(2-pyrazin-2-ylcarbonylamino-ethyl)-succinamide]
